Source: the METLIN SMRT retention time set (Domingo-Almenara et al. 2019)

Test: gradient 5% acetonitrile 3 min, to 50% in 2 min, to 85% in 15 min, held 3 min, 100 µL/min
Settings: column: Zorbax Extend-C18 2.1 x 50 mm; eluents: water / acetonitrile, 0.1% formic acid
Method in brief: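 Each retention time is based on an adduct peak selected computationally and verified by manual inspection. Measurements used HPLC–quadrupole time-of-flight mass spectrometry in positive and negative ionization mode on mixtures of ~100 pure standards. Chromatography ran on a Zorbax Extend-C18 column (2.1 × 50 mm, 1.8 μm) at 100 μL/min with water and acetonitrile, each containing 0.1% formic acid, and dead and dwell volumes of 40 μL and 900 μL.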

Row | Compound | RP-LC retention time [s]
1 | Cc1ccc(N2C(=O)C3N=NN(Cc4nc(-c5ccccc5Br)no4)C3C2=O)cc1F (centres undefined) | 1010
2 | Cc1cccc(Oc2nccnc2N2CCC(C(=O)NC(C)c3ccc(C)c(C)c3)CC2)c1 (centres undefined) | 1130
3 | Cc1nccn1C1CN(C(=O)C2CCCCC2)C1 | 572
4 | COc1ccc2nc3oc(C(=O)NCCCN4CCCC(C)C4)cc3cc2c1 (centres undefined) | 934
5 | Cc1ccccc1-c1noc(CCc2nnc3ccc(N4CCOCC4)nn23)n1 | 782
6 | CCCCc1ccc(NC(=O)CSc2nccc(N3CCCC3)n2)cc1 | 803
7 | Cc1cc(C)cc(NC(=O)Nc2ccc3nncn3c2)c1 | 738
8 | CCn1nccc1C(=O)N1CCCC1c1ccc(F)cc1 (centres undefined) | 785
9 | Cc1ccc2c(Nc3ccc(F)c(C#N)c3)c(C(=O)N3CCC(C)CC3)cnc2n1 | 603
10 | CCc1noc(-c2ccc(-n3ncc(C(=O)NC4CC4)c3C)nc2)n1 | 792
11 | CCN1CCCn2cc(S(=O)(=O)N3CCN(c4ccccc4Cl)CC3)cc2C1=O | 912
12 | CCOC(=O)c1ccc(NS(=O)(=O)c2cc3n(c2)CCCNC3=O)cc1 | 1010
13 | COc1ccc(N2CC(c3noc(-c4cc(F)cc(F)c4)n3)CC2=O)cc1OC (centres undefined) | 899
14 | O=C(Nc1cnc(N2CCCCC2)nc1)c1ccsc1 | 800
15 | O=C(NCC1CCCO1)C1c2ccccc2C(=O)N1Cc1ccc2c(c1)OCO2 (centres undefined) | 728
16 | O=C(NC1CCCCCCC1)C1CC(=O)N(CCc2c[nH]c3ccc(F)cc23)C1 (centres undefined) | 859
17 | CC(C)OC(=O)CCC/C=C\C[C@@H]1[C@@H](CC[C@@H](O)CCc2ccccc2)[C@H](O)C[C@@H]1O | 1020
18 | Cc1cc(C)c(C)c(S(=O)(=O)NCC(=O)NCC2CCCO2)c1C (centres undefined) | 724
19 | Cc1ccc2c(=O)c(C(=O)N3CCCC3)cn(CC(=O)NCc3ccc4c(c3)OCO4)c2n1 | 625

Row | Compound | RP-LC retention time [s]
20 | Cc1cc(C(=O)NC2CCc3nnc(C4CC4)n3CC2)c(C)n1Cc1ccco1 (centres undefined) | 660
21 | O=C(CCC(=O)N1CC2CCCN2c2ccccc21)NCc1cccs1 (centres undefined) | 865
22 | Cn1nc(-c2nc(C3CC3)no2)c2c1CCN(C(=O)c1ccc(F)c(Cl)c1)C2 | 900
23 | CCN(CC)CCNC(=O)c1cc2n(n1)CCCN(Cc1cccc(C)c1)C2=O | 630
24 | CCOC(=O)C1CCCN(C(=O)c2cc3c(=O)n(C)c(=O)n(C)c3s2)C1 (centres undefined) | 674
25 | O=C(NCCc1ccccc1)N1CCCC(Cn2c(C3CC3)nc3cccnc32)C1 (centres undefined) | 682
26 | Cc1cccc(N(C)C(=O)Cn2cnc3nc4c(cc3c2=O)CCCC4)c1 | 705
27 | CCC(C)NC(=O)Cn1c(=O)c2cnc(-c3ccc(C)cc3)nc2n(C)c1=O (centres undefined) | 920
28 | CCOC(=O)c1c(C)oc2nc(C)nc(N3CCN(c4ccccc4OC)CC3)c12 | 1020
29 | O=C(c1csc(-c2ccc(N3CCSCC3)nc2)n1)N1CCC2(CC1)OCCO2 | 822
30 | COc1cc(=O)n2c(c1C(=O)Nc1cccc(SC)c1)CCCC2 | 734
31 | Cc1cccc(NC(=O)c2[nH]c(C)c(S(=O)(=O)N3CCCC3)c2C)c1C | 858
32 | CCOC(=O)c1sc2ncnc(N3CCN(c4ccccc4OC)CC3)c2c1C | 1200
33 | Cc1ccc(N2CCN(C(=O)c3csc(C(=O)NC4CC4)n3)CC2)cc1 | 800
34 | COCC1CN(C(=O)c2ccc(Cc3c(C)noc3C)o2)CC12CCNCC2 (centres undefined) | 586
35 | CCC(=O)NCC12CCCC=C1N(C)C(=O)CC2 (centres undefined) | 648
36 | NC(=O)[C@@H]1C[C@H](Oc2cccnc2)CN1C(=O)CCc1nc2ccccc2s1 | 589
37 | CNC(=O)c1n[nH]c2c1CC(C(C)(C)C)CC2 (centres undefined) | 786
38 | CCCn1cc(C2=CCN(S(=O)(=O)c3ccc(NC(C)=O)cc3)CC2)c2cccnc21 | 865

Row | Compound | RP-LC retention time [s]
39 | OCC1CN(c2ncccn2)CC12CCN(Cc1c[nH]c3ccccc13)CC2 (centres undefined) | 579
40 | O=C(c1cc2c(=O)n(Cc3ccccc3)ccc2s1)N1CCCCCC1 | 876
41 | COc1ccc(N2CCN(c3ncc(S(=O)(=O)c4ccc(C)cc4)c(N)n3)CC2)cc1 | 919
42 | CS(=O)(=O)N1CCCc2cc(C(=O)NCCCN3CCOCC3)ccc21 | 585
43 | CN1CCN(CCCNC(=O)C2CCN(C(=O)c3ccc(-n4ccc5ccccc54)s3)CC2)CC1 | 630
44 | O=C(NCc1cccc2ccccc12)NCC1CCN(C(=O)Oc2ccccc2)CC1 | 866
45 | Cc1cc(N2CCN(S(=O)(=O)c3ccc4cccc5c4c3CC5)CC2)nc(NC2CCCCC2)n1 | 955
46 | CCNC(=O)C1CCc2sc(C(=O)N3CCCCC3)cc2C1 (centres undefined) | 694
47 | COCC(=O)N1CCOc2ccc(N(C)C)cc2C1 | 550
48 | Cc1ccccc1NC(=O)N1CCC(n2cnc3c(C)cccc3c2=O)CC1 | 754
49 | CCC1CN(C(=O)N2CCC(C(=O)NCc3ccco3)CC2)c2cc(C)ccc2O1 (centres undefined) | 872
50 | Cc1cc2[nH]c(C(=O)Nc3ccccc3Br)c(CN(C)C)c2s1 | 659
51 | CCCCNC(=O)C1CCN(C(=O)c2ncn3c2COC(c2ccc(F)cc2)C3)CC1 (centres undefined) | 722
52 | CC1CN(C(=O)Cn2cc(SCC(=O)NC3CCCCC3)c3ccccc32)CC(C)O1 (centres undefined) | 879
53 | CNC(=O)N1CCCC(c2cccc(C(=O)NCc3ccc(OC(C)C)cc3)c2)C1 (centres undefined) | 835
54 | O=C(c1ccco1)N1CCCN(C2CCN(Cc3ccc(F)cc3)C2=O)CC1 (centres undefined) | 565
55 | CCN1CCCC1CNC(=O)c1nc(-c2oc3c(C)cccc3c2C)no1 (centres undefined) | 670
56 | COc1ccc(NC(=O)c2[nH]c3cc(C)sc3c2CN2CCOCC2)cc1 | 655
57 | Cc1[nH]c(C(=O)N2CCN(c3cccc(Cl)c3)CC2)c(C)c1S(=O)(=O)N1CCC(C)CC1 | 1090

The next lines start with the values.

Row | RP-LC retention time [s] | Compound
58 | 603 | O=C(CSc1ccc(N2CCCC(C(=O)NC3CC3)C2)nn1)NCc1ccccc1 (centres undefined)
59 | 846 | O=S(=O)(c1ccc2nncn2c1)N(Cc1ccc(F)cc1)c1ccccc1
60 | 863 | COc1ccccc1-c1noc(CCn2nc(-c3ccc(F)cc3)ccc2=O)n1
61 | 902 | Cc1cc(-c2nnc(-c3ccccc3)o2)c(C)n1CC(=O)Nc1ccc2c(c1)OCCO2
62 | 1350 | CCn1cc(-c2nc(C(=O)Nc3ccc(Cl)cc3F)cs2)c2cccnc21
63 | 788 | O=C(NC1CC1)C1CCCN(c2nccn3nc(-c4ccccc4Cl)cc23)C1 (centres undefined)
64 | 896 | O=C(Cc1ccccc1Cl)Nc1nnc(-c2ccc(OC(F)(F)F)cc2)o1
65 | 679 | O=C(Cc1nnc(-c2cnccn2)o1)Nc1cccc(F)c1
66 | 669 | COc1cccc(CNC(=O)Cc2cn(C)c3ncccc23)c1OC
67 | 762 | O=C(NCC1(O)CCc2ccccc21)Nc1ccccc1Cl (centres undefined)
68 | 720 | CCC(=O)N1CCc2cc(N3CC(C(=O)Nc4ccccc4)CC3=O)ccc21 (centres undefined)
69 | 967 | COc1cc(OC)cc(N2C(=O)C3N=NN(Cc4nc(-c5ccccc5Cl)no4)C3C2=O)c1 (centres undefined)
70 | 967 | COc1ccc(N2CCN(c3cc(SCC(=O)Nc4ccc(OC)c(Cl)c4)ncn3)CC2)cc1
71 | 1240 | CCc1ccc(-c2csc(NC(=O)Cc3csc(-c4ccccc4)n3)n2)cc1
72 | 941 | COC(=O)C1=CN(c2ccc(C)c(C)c2)c2ccccc2S1(=O)=O
73 | 870 | O=C(NCc1nn(Cc2ccccc2)c2ccccc12)c1ccoc1

Row | RP-LC retention time [s] | Compound
74 | 648 | O=C(c1ccc(/C=C/c2n[nH]c3ccccc23)cc1)N1CCNCC1
75 | 1090 | Cc1nc2c(sc3nc(-c4ccccc4)ccc32)c(=O)n1CC(=O)Nc1ccc(F)cc1Cl
76 | 609 | Cc1cc(N2CCN(C)CC2)nc2ccc(NC(=O)Nc3ccccc3Br)cc12
77 | 891 | CCc1nn2c(CNC(=O)c3ccccn3)c(-c3ccccc3)nc2s1
78 | 894 | CCOc1ccc2nc(NC(=O)Cn3nc(C(=O)N4CCCC4)c4ccccc43)sc2c1
79 | 650 | O=C(c1ccc(Cl)cc1)N1CCCN(c2nnc3ccccn23)CC1
80 | 810 | O=C(NCc1cc(-c2ccccc2F)on1)c1ccccc1Br
81 | 1020 | COc1cccc(-n2nnc(-c3nsc(Nc4ccc(OC)c(Cl)c4)n3)c2C)c1
82 | 982 | Cc1nc2c(sc3nc(-c4ccccc4)ccc32)c(=O)n1CC(=O)Nc1ccccc1F
83 | 729 | Cc1ccc(CNC(=O)Cn2ccc3ccc(-c4nnc(C)o4)cc32)o1
84 | 639 | Cc1ccc(C(=O)NCC(=O)Nc2nc3ccccc3[nH]2)c(C)c1
85 | 1120 | COc1ccc(NC(=O)C2=Cc3cc(Br)ccc3OC2)c(OC)c1
86 | 1140 | O=C(Nc1ccc(Br)cc1)C1CCCN(c2nccnc2Oc2ccccc2)C1 (centres undefined)
87 | 851 | Cc1cccc(NC(=O)Cn2c(=O)n(-c3ccccc3)c3ncccc32)c1
88 | 922 | CCOC(=O)c1ccc(NC(=O)Cc2csc3nc(-c4ccc(C)c(C)c4)cn23)cc1
89 | 913 | Brc1ccc(-c2nc(-c3ccc4nncn4c3)no2)cc1
